In PMC3519527, “Compounds from Sorindeia juglandifolia (Anacardiaceae) exhibit potent anti-plasmodial activities in vitro and in vivo” (Malaria Journal, 2012):
Several values for one entry are separate records, joined by “and”; a condition that tells them apart may be missing. Identical values can stand only once. Counter-ions that a name gives are not always drawn. Like-named read-outs stand apart in the source and are kept apart here. Each block holds one molecule with its values, some of them ahead of it.

Legend:
[1] = test system: Plasmodium falciparum chloroquine-resistant strain W2; assay: In vitro screening against Plasmodium falciparum W2 (flow cytometry, 48 h); format: cell-based; conditions: read-out: P. falciparum W2 IC50±SD
Experimental: Plasmodium falciparum strain W2, known to be resistant to chloroquine and other anti-malarials, was cultured in sealed flasks at 37°C, in a 3% O2, […] and 91% N2 atmosphere in RPMI 1640, 25 mM HEPES, pH 7.4, supplemented with heat inactivated 10% human serum and human erythrocytes to achieve a 2% haematocrit. Serum and erythrocytes were purified from blood voluntarily given by adults with no recent contact with malaria, and who have signed an informed consent form. Parasites were synchronized in the ring stage by serial treatment with 5% sorbitol (Sigma) and tested at 1% parasitaemia. Stock solutions of plant extracts were prepared as 1 mg/ml in DMSO, diluted as needed for individual experiments, and tested in triplicate as described previously. The stock solutions were diluted in supplemented RPMI 1640 medium so as to have at most 0.2% DMSO in the final reaction medium. Equal volumes (100μl) of inhibitors and 1% parasitaemia, 4% haematocrit culture were then added and gently mixed thoroughly. Negative controls contained equal concentrations of DMSO. Positive controls contained 1 μM chloroquine phosphate (Sigma). Cultures were incubated at 37°C for 48 h. Parasites at the ring stage were thereafter fixed by replacing the serum medium by an equal volume of 1% formaldehyde in PBS. Aliquots (5 μl) of each culture were then added to round-bottom polystyrene 96 well plates containing 150 μl of 100 mM NH4Cl, 0.1% Triton X- 100 and 1 nM YOYO-1 nuclear dye (Molecular Probes) in PBS, and the parasitaemia of treated and control cultures were compared using a Becton-Dickinson FACSort flow cytometer equipped with AMS-1 loader (Cytek Development) to count nucleated (parasitized) erythrocytes. Data acquisition was performed using Cell Quest software.

[2] = test system: P. falciparum field isolates; assay: In vitro screening against Plasmodium falciparum field isolates (Giemsa smears, 48 h); format: cell-based
Experimental: Plasmodium falciparum isolates were prepared as described previously. Blood was collected from outpatients presenting at the Etoug-Ebe Baptist Health Centre in Yaoundé with uncomplicated malaria. Patients older than five years of age with mono infection with P. falciparum and parasite density greater than 6,000 asexual parasites per microliter of blood were considered for inclusion in the study. Those with recent history of self-medication with anti-malarial drugs were excluded. After patients agreed to participate in the study and signed the consent form, 5 mL of blood was collected from them by venipuncture into heparinized tubes. The blood was centrifuged at 3,000 rpm for 15 min and the supernatant discarded. The pellets were suspended in 10 mL of pre-warmed RPMI 1640 medium and centrifuged again twice at 3,000 rpm for 5 min, and the supernatant was then discarded. The volume of the packed-cells was estimated and mixed with an equal amount of RPMI 1640, 25 mM HEPES, pH 7.4, and subsequently used at 4% haematocrit for experiments. Thin smears were evaluated to assess the parasitaemia, the developmental stages of parasites, and the colour, shape and size of red blood cells. Nine such isolates were prepared and subsequently used for experiments.
The activity of plant products was assessed as previously described. […] Stock solutions of plant extracts were prepared at 1 mg/ml in DMSO and diluted as needed for individual experiments in 96-well plates using RPMI 1640, to achieve a maximum final DMSO concentration of 0.2%. Chloroquine was used as positive control at 1 μM, and the negative control was an equal concentration of DMSO. To assess the susceptibility of parasites to drugs, they were maintained in RPMI 1640 supplemented with 25 mM HEPES buffer (pH 7.4), 0.05% ampicillin, and 10% AB+ human serum at 37°C, in a candle jar. To achieve this, 200 μl parasite suspensions at 4% haematocrit and 0.1%– 0.3% parasitaemia were added to 50 μl of each concentration of inhibitor in individual wells, each tested in triplicate. Cultures were incubated at 37°C for 48 h in a candle jar. To estimate the effects of inhibitors after 48 h, thin smears from treated and control cultures were fixed in methanol for 30 s, stained using fresh 5% Giemsa solution (Sigma) in phosphate buffer (pH 7.1), and examined by counting the parasitaemia per 100 erythrocytes. IC50s were calculated from curves plotting percent growth versus drug concentration using Prism 5.0 software with data fitted by nonlinear regression to the variable slope sigmoidal dose–response formula y = 100/[1 + 10^(logIC50− x)H, where H is the Hill coefficient or slope factor [5].

[3] = biological target: T1, recombinant falcipain-2 (Plasmodium falciparum, UniProt Q8I6U4); assay: Falcipain-2 inhibition (Z-Leu-Arg-AMC hydrolysis); format: biochemical; conditions: recombinant enzyme, pH 5.5, triplicate; for IC50: read-out: Falcipain-2 IC50±SD
T1 construct: made in house
T1 sequence (Q8I6U4 244-484): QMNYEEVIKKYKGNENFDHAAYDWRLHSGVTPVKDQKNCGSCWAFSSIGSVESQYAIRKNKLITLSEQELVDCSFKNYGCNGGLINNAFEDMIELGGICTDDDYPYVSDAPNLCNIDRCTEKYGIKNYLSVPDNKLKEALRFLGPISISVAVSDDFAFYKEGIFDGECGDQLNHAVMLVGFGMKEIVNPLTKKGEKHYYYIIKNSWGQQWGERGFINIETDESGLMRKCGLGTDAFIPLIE
Experimental: Falcipain-2 activity was measured as hydrolysis of the fluorogenic substrate benzyloxycarbonyl-Leu-Arg-7-amino-4-methyl-coumarin (Z-Leu-Arg-AMC) using a Fluoroskan II spectrofluorometer, as described previously. For inhibitor assays, recombinant falcipain-2 prepared as described previously was incubated with inhibitors (added from stocks concentrated 100- to 1,000-fold in dimethyl sulfoxide [DMSO]) with 10 mM dithiothreitol, pH 5.5, for 30 min at room temperature before the substrate (50 μM) was added. Equal concentrations of enzyme were used for each experiment. Multiple inhibitor concentrations were studied in triplicate, and the rates of hydrolysis were determined and compared to those of controls containing equal concentrations of DMSO. All values were normalized to the control activity, and IC50s were calculated with the Prism 5.0 program, with data fitted by nonlinear regression.

[4] = test system: Plasmodium berghei strain B; assay: In vivo suppressive test in mice; design: species or system Plasmodium berghei in Swiss albino mice; conditions: for SD50 (suppressive dose at 50%): oral, parasitaemia 24 h after last dose
Experimental: (§1) Compound 1 (2,3,6-trihydroxy benzoic acid), obtained from the fractionation of S.juglandifolia extract, was assessed in vivo using the Plasmodium berghei rodent parasite model, according to the procedure described by Okokon et al.[12] with a few modifications. Plasmodium berghei strain B (MRA-406, MR4, ATCC® Manassas Virginia) was obtained from BEI Resources and used for the experiments. Female Swiss albino mice aged eight weeks and weighing ~20 g were used for efficacy and toxicity experiments. These animals were bred in the animal house of the Faculty of Medicine, University of Yaoundé I. They were fed a standard laboratory diet (S.P.C. Ltd., Bafoussam, Cameroon) and given clean tap water ad libitum. Animal welfare requirements were strictly considered during the experiments, as described in the protocol approved by the National Ethics Committee (Reg. No.FWAIRB00001954). To start infections, a cryotube of parasites was thawed and the undiluted contents were injected immediately i.p. into naïve recipient mice. Three days after infection, the parasitaemia was evaluated daily in tail vein blood through Giemsa-stained thin smear observation under oil immersion at 100X magnification. Passage of infection into new mice consisted of an i.p. injection of 200 μL of 10^6 infected erythrocytes/mL sterile PBS. The test compound was dissolved and diluted in Tween 20: Ethanol (7:3 v/v).
Preliminary screening of the compound consisted of a suppressive test. To achieve this, animals were infected i.p. with 200 μL of 10^6 infected erythrocytes/mL sterile PBS. Four hours after infection, duplicate batches of animals were treated as follows: four batches of six mice each were given test drug orally at respective dosages of 10, 30, 50 and 100 mg/kg, and subsequently once daily for four consecutive days. Negative controls consisted of one batch of 6 infected mice receiving no drug (dose 0), and one batch of six uninfected animals. Positive controls consisted of one batch of infected mice receiving quinine sulfate at 24 mg/kg.
(§2) Curative assays were subsequently conducted using the same setting, with animal receiving drug at daily oral dosages of 10, 30, 50 and 100 mg/kg for 5 consecutive days, starting day 3 (72 hours) after infection. Thin blood smears were made daily from the tail blood of mice and the level of parasitaemia assessed by examination of Giemsa-stained smears using a microscope at 100X magnification.

[5] = test system: Plasmodium berghei strain B; assay: In vivo curative test in mice; design: species or system Plasmodium berghei in Swiss albino mice
Experimental: as §1, §2

[6] = Plasmodium falciparum, W2, 48 h, W2 strain, 48 h, triplicate
[7] = Plasmodium falciparum, isolate E01, read-out: IC50±SD
[8] = Plasmodium falciparum, isolate E02, read-out: IC50±SD
[9] = Plasmodium falciparum, isolate E03, read-out: IC50±SD
[10] = Plasmodium falciparum, isolate E04, read-out: IC50±SD
[11] = Plasmodium falciparum, isolate E05, read-out: IC50±SD
[12] = Plasmodium falciparum, isolate E06, read-out: IC50±SD
[13] = Plasmodium falciparum, isolate E07, read-out: IC50±SD
[14] = Plasmodium falciparum, isolate E08, read-out: IC50±SD
[15] = Plasmodium falciparum, isolate E09, read-out: IC50±SD

Compound: C[C@@H]1CC[C@H]2[C@@H](C)C(=O)O[C@@H]3O[C@@]4(C)CC[C@@H]1[C@]32OO4 [ART, artemisinin, reference compound]
IC50 [1, 6]: 0.007 ± 0.01 µg/mL

Compound: CCN(CC)CCCC(C)Nc1ccnc2cc(Cl)ccc12 (centres unmarked) [CQ, chloroquine, reference compound]
IC50 ([1]; Plasmodium falciparum, W2, 48 h): 0.05 ± 0.01 µg/mL
IC50 ([2]; Plasmodium falciparum, read-out: IC50 against P. falciparum isolates, span over the nine field isolates): 0.0166 to 0.0384 µg/mL
IC50 ([2]; Plasmodium falciparum, read-out: IC50±SD, isolate E01): 0.0254 ± 0.00347 µg/mL
IC50 ([2]; Plasmodium falciparum, read-out: IC50±SD, isolate E02): 0.0233 ± 0.019 µg/mL
IC50 ([2]; Plasmodium falciparum, read-out: IC50±SD, isolate E03): 0.0384 ± 0.00437 µg/mL
IC50 ([2]; Plasmodium falciparum, read-out: IC50±SD, isolate E04): 0.0272 ± 0.00072 µg/mL
IC50 ([2]; Plasmodium falciparum, read-out: IC50±SD, isolate E05): 0.0166 ± 0.00148 µg/mL
IC50 ([2]; Plasmodium falciparum, read-out: IC50±SD, isolate E06): 0.0192 ± 0.00486 µg/mL
IC50 ([2]; Plasmodium falciparum, read-out: IC50±SD, isolate E07): 0.0243 ± 0.00332 µg/mL
IC50 ([2]; Plasmodium falciparum, read-out: IC50±SD, isolate E08): 0.0187 ± 0.00094 µg/mL
IC50 ([2]; Plasmodium falciparum, read-out: IC50±SD, isolate E09): 0.0188 ± 0.00187 µg/mL

Compound: O=C(O)c1c(O)ccc(O)c1O [Compound 1, 2,3,6-trihydroxy benzoic acid]
IC50 [1, 6]: 16.5 µM
IC50 ([1]; W2 strain, 48 h, triplicate, listed as 2,3,6-trihydroxy benzoic acid (1)): 16.5 ± 0.47 µM
IC50 [3]: 35.4 µM
IC50 [2, 7]: 11.3 ± 0.92 µM
IC50 [2, 8]: 17.1 ± 0.48 µM
IC50 [2, 9]: 22 ± 0.93 µM
IC50 [2, 10]: 24.8 ± 1.04 µM
IC50 [2, 11]: 6.32 ± 0.16 µM
IC50 [2, 12]: 36.1 ± 2.01 µM
IC50 [2, 13]: 33.7 ± 0.61 µM
IC50 [2, 14]: 9.92 ± 4.82 µM
IC50 [2, 15]: 19.77 ± 0.14 µM
IC50 ([2]; Plasmodium falciparum, span over the nine field isolates, read-out: IC50 against P. falciparum isolates): 6.3 µM
IC50 ([2]; span over the nine field isolates, read-out: IC50 against P. falciparum isolates): 6.3 to 36.1 µM
Mean % Suppression/Inhibition ([4]; 10 mg/kg oral, once daily, 24 h after last dose): 22.73%
Mean % Suppression/Inhibition ([4]; 30 mg/kg oral, once daily, 24 h after last dose): 35.95%
Mean % Suppression/Inhibition ([4]; 50 mg/kg oral, once daily, 24 h after last dose): 53.66%
Mean % Suppression/Inhibition ([4]; 100 mg/kg oral, once daily, 24 h after last dose): 69.63%
SD50 (suppressive dose at 50%) [4]: 44.9 mg/kg and 44.9 ± 1.6 mg/kg
SD50 (suppressive dose at 50%) ([4]; listed as 2,3,6-trihydroxy benzoic acid (1)): ^cSD50 = 44.9 ± 1.6 mg/kg
Mean % Suppression/Inhibition ([5]; 10 mg/kg oral daily for 5 days from day 3): 20.95%
Mean % Suppression/Inhibition ([5]; 30 mg/kg oral daily for 5 days from day 3): 41.00%
Mean % Suppression/Inhibition ([5]; 50 mg/kg oral daily for 5 days from day 3): 57.27%
Mean % Suppression/Inhibition ([5]; 100 mg/kg oral daily for 5 days from day 3): 66.40%
ED50 ([5]; Plasmodium berghei, oral, parasitaemia 24 h after last dose, read-out: ED50 (effective dose at 50%)): 42.2 mg/kg
melting point: 188.5 to 190 °C

Compound: C=C[C@H]1C[N@@]2CC[C@H]1C[C@H]2[C@H](O)c1ccnc2ccc(OC)cc12 [Quinine sulfate, quinine sulfate, reference compound]
Mean % Suppression/Inhibition ([4]; 24 mg/kg, positive control): 71.34%
Mean % Suppression/Inhibition ([5]; 24 mg/kg, positive control): 89.50%

Second part, the molecule after the results:

IC50 [1, 6]: 13 µM
IC50 ([1]; W2 strain, 48 h, triplicate, listed as 2,3,6-trihydroxy methyl benzoate (2)): 13 ± 1.63 µM
IC50 [3]: 6.1 µM and 6.09 µM
IC50 [2, 7]: 7.02 ± 0.07 µM
IC50 [2, 8]: 14.7 ± 0.15 µM
IC50 [2, 9]: 19.8 ± 0.38 µM
IC50 [2, 10]: 18.8 ± 1.04 µM
IC50 [2, 11]: 12.2 ± 0.02 µM
IC50 [2, 12]: 23.1 ± 2.01 µM
IC50 [2, 13]: 26.69 ± 0.02 µM
IC50 [2, 14]: 13.3 ± 1.85 µM
IC50 [2, 15]: 24.4 ± 0.05 µM
Compound: COC(=O)c1c(O)ccc(O)c1O [Compound 2, 2,3,6-trihydroxy methyl benzoate]

Falcipain-2 IC50±SD [3]: 0.049 ± 0.003 µg/mL
Compound: CC(C)C[C@H](NC(=O)[C@H]1O[C@@H]1C(=O)O)C(=O)NCCCCN=C(N)N [Compound E64, l-transepoxy-succinyl-leucylamido-(4-guanidino)-butane, reference compound]
